Earlier results in patent publication US12708633B2, “Cannabidiol-dominant formulations, methods of manufacturing, and uses thereof” (Tilray Brands, Inc., priority 2021, dated 2026).

Columns and labels:
[1] = humans
[2] = due to high intestinal permeability and low aqueous solubility

C=C(C)[C@@H]1CCC(C)=C[C@H]1c1c(O)cc(CCCCC)cc1O [CBD, Cannabidiol]
oral bioavailability [1]: low
Biopharmaceutical Classification System (BCS) class [2]: Class II
